Test results taken from ChEMBL document CHEMBL1201862, “PubChem BioAssay data set” (2004).
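How tested: cells in 96-well plates exposed to compound for 48 hours at five concentrations. Here, GI50 denotes the concentration required for 50% inhibition of growth.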 Activity calls are given as the source filed them. No stated cut-off is given here; in the data, active = GI50 up to about 1.1 µM and inactive = higher. Residues, ends and D or L forms follow the SMILES beside them.

Tests used:
Experiment in all cases: NCI-60 cell line screen, 48 h
MDA-N = system: MDA-N
CAKI-1 = system: CAKI-1
UO-31 = system: UO-31
NCI-H226 = system: NCI-H226
OVCAR-3 = system: OVCAR-3
SW-620 = system: SW-620
COLO 205 = system: COLO 205
SF-539 = system: SF-539
HCT-116 = system: HCT-116
SK-MEL-2 = system: SK-MEL-2
HL-60 = system: HL-60
A549 = system: A549
NCI-H522 = system: NCI-H522
EKVX = system: EKVX
KM12 = system: KM12
OVCAR-4 = system: OVCAR-4
786-0 = system: 786-0
MCF7 = system: MCF7
M14 = system: M14
T47D = system: T47D

Measured: GI50

COc1ccc(-n2c(=O)n(-c3ccccc3)c(=O)n2-c2ccc(OC)cc2)cc1
inactive: MDA-N > 100 µM | CAKI-1 1.78 µM | UO-31 > 100 µM | NCI-H226 > 100 µM | OVCAR-3 > 100 µM | SW-620 > 100 µM | COLO 205 > 100 µM | SF-539 > 100 µM | HCT-116 > 100 µM | SK-MEL-2 > 100 µM | HL-60 > 100 µM | A549 > 100 µM | NCI-H522 > 100 µM | EKVX > 100 µM | KM12 > 100 µM | OVCAR-4 > 100 µM | 786-0 > 100 µM | MCF7 > 100 µM | M14 > 100 µM | T47D > 100 µM

CCCCc1ccc(Nc2nc(Cl)c3c(ncn3COCCOC(C)=O)n2)cc1
inactive: MDA-N 18.8 µM | CAKI-1 25.9 µM | UO-31 18.7 µM | NCI-H226 17.4 µM | OVCAR-3 21.2 µM | SW-620 23.1 µM | COLO 205 22.3 µM | SF-539 19 µM | HCT-116 17.3 µM | SK-MEL-2 19.1 µM | HL-60 21.6 µM | A549 19 µM | NCI-H522 17.2 µM | EKVX 19.8 µM | KM12 18 µM | OVCAR-4 24.8 µM | 786-0 20.1 µM | MCF7 22.5 µM | M14 17.9 µM | T47D 17.8 µM

CCC(C)C(NC(=O)C1CCCN1)C(=O)NC(C(=O)NCC(=O)NC(CC(N)=O)C(=O)NC(CC(C)C)C(=O)NC(CC(C)C)C(=O)NC(CCCCN)C(N)=O)C(C)C (stereo not given) (H-PIVGNLLK-NH2; configuration not given here)
inactive: MDA-N > 75 µM | CAKI-1 > 75 µM | UO-31 > 75 µM | NCI-H226 > 75 µM | OVCAR-3 > 75 µM | SW-620 > 75 µM | COLO 205 > 75 µM | SF-539 > 75 µM | HCT-116 > 75 µM | SK-MEL-2 > 75 µM | HL-60 23 µM | A549 > 75 µM | NCI-H522 > 75 µM | EKVX > 75 µM | KM12 > 75 µM | OVCAR-4 > 75 µM | 786-0 > 75 µM | MCF7 > 75 µM | M14 > 75 µM | T47D > 75 µM
